pIC50: −log10 of the molar value.
What follows are molecules tested against T1, RORγ ligand-binding domain (Homo sapiens, UniProt P51449) (assay: RORγ Reporter Assay (Gal4)). Conditions: HEK293 cells, luciferase reporter, 24 h incubation, absolute IC50; read-out: IC50.
T1 construct: Gal4 (galactose-responsive transcription factor); expressed in transfected cells; host or cells: HEK293, transient co-transfection
T1 sequence (P51449 269-508 limits assumed): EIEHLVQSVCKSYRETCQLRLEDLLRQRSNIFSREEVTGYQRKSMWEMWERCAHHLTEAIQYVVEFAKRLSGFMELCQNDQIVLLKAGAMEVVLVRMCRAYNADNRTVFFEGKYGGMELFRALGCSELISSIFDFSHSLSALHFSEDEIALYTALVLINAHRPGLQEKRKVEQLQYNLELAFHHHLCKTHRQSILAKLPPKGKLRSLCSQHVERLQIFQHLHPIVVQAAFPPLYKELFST
Format: cell-based
Procedure: The HEK293 cell line is co-transfected transiently with two plasmids, one with the RORγ ligand-binding domain fused to galactose-responsive transcription factor (Ga14), and the other with the luciferase reporter gene and Gal binding sites (UAS). This construction allows to determine the RORT activity in a cellular system through the measurement of luminescence.
A suspension of RORγ reporter cells was dispensed into plates and cultured 2 h at 37° C. and 5% CO2. Media formulation consisted in DMEM/F-12 medium (Gibco) supplemented with 10% heat inactivated FBS (Sigma-Aldrich), non-essential aminoacids (Sigma-Aldrich), 2 mM Glutamax (Gibco) and 100 U/mL penicillin (Sigma-Aldrich). Dose-response curves with compounds were prepared in 100% DMSO and further diluted 100-fold in culture medium. Compound solutions were added to the plate containing cells (final DMSO concentration of 0.1%) and incubated for 24 h at 37° C. and 5% CO2. Luciferase detection reagent was added to each well, and relative light units (RLUs) were quantified from each assay well using a plate reading luminometer.
Values of average RLU±S.D. were computed for all treatment sets, followed by the calculations of percent-reduction of RORT activity in response to respective test compound. The following formula was used: activity=100*[1−[[…]] where the theoretical minimum reduction (0% reduction). […] These calculations were performed in excel-fit software using X-204 model curve.

Structure (SMILES)	pIC50
CCN(Cc1ccc(C(F)(F)F)cc1F)c1ncnc2c1ccn2C[C@@]1(O)CCN(CC(N)=O)C[C@@H]1O (racemic) [Example L5-3-1, rac-2-((3R,4R)-4-((4-(ethyl(2-fluoro-4-(trifluoromethyl)benzyl)amino)-7H-pyrrolo[2,3-d]pyrimidin-7-yl)methyl)-3,4-dihydroxypiperidin-1-yl)acetamide]	7.20
NC(=O)CN1CC[C@@H](Cn2cc(F)c3c(N(Cc4cnc(C(F)(F)F)nc4)C4CC4)ncnc32)[C@H](O)C1 (racemic) [Example P6-17, rac-2-((3R,4R)-4-((4-(cyclopropyl((2-(trifluoromethyl)pyrimidin-5-yl)methyl)amino)-5-fluoro-7H-pyrrolo[2,3-d]pyrimidin-7-yl)methyl)-3-hydroxypiperidin-1-yl)acetamide]	7.37
NC(=O)CN1CC[C@@H](Cn2cnc3c(N(Cc4cccc(C(F)(F)F)c4)C4CC4)ncnc32)[C@H](O)C1 (racemic) [Example P6-20, rac-2-((3R,4R)-4-((6-(cyclopropyl(3-(trifluoromethyl)benzyl)amino)-9H-purin-9-yl)methyl)-3-hydroxypiperidin-1-yl)acetamide]	< 6.00
NC(=O)CN1CCC(Cn2ccc3c(N(Cc4ccc(C(F)(F)F)cc4)C4CC4)ncnc32)C(F)(F)C1 (single isomer, unassigned) [Example K8-1-1]	8.05
NC(=O)CN1CCC(Cn2ccc3c(N(Cc4ccc(C(F)(F)F)cc4)C4CC4)ncnc32)C(F)(F)C1 (single isomer, unassigned) [Example K8-1-2]	8.40
NC(=O)CN1CC[C@@H](Cn2ccc3c(N(Cc4ccc(C(F)(F)F)cn4)C4CC4)ncnc32)[C@H](F)C1 (single isomer, unassigned) [Example K8-3-1]	7.12
NC(=O)CN1CC[C@@H](Cn2ccc3c(N(Cc4ccc(C(F)(F)F)cn4)C4CC4)ncnc32)[C@H](F)C1 (single isomer, unassigned) [Example K8-3-2]	7.66
NC(=O)CN1CC[C@@H](Cn2ccc3c(N4CCOC[C@@H]4c4cccc(C(F)(F)F)c4)ncnc32)[C@H](O)C1 (single isomer, unassigned) [Example P6-03-1]	7.89
NC(=O)CN1CC[C@@H](Cn2ccc3c(N4CCOC[C@@H]4c4cccc(C(F)(F)F)c4)ncnc32)[C@H](O)C1 (single isomer, unassigned) [Example P6-03-2]	7.59
NC(=O)CN1CC[C@@H](Cn2ccc3c(N4CCOC[C@H]4c4cccc(C(F)(F)F)c4)ncnc32)[C@H](O)C1 (single isomer, unassigned) [Example P6-04-1]	7.33
NC(=O)CN1CC[C@@H](Cn2ccc3c(N4CCOC[C@@H]4c4ccc(C(F)(F)F)cn4)ncnc32)[C@H](F)C1 (single isomer, unassigned) [Example Q4-1-1, 2-((3R*,4R*)-3-fluoro-4-((4-((S)-3-(5-(trifluoromethyl)pyridin-2-yl)morpholino)-7H-pyrrolo[2,3-d]pyrimidin-7-yl)methyl)piperidin-1-yl)acetamide]	6.77
NC(=O)CN1CC[C@@H](Cn2ccc3c(N4CCOC[C@@H]4c4ccc(C(F)(F)F)cn4)ncnc32)[C@H](F)C1 (single isomer, unassigned) [Example Q4-1-2, 2-((3R*,4R*)-3-fluoro-4-((4-((S)-3-(5-(trifluoromethyl)pyridin-2-yl)morpholino)-7H-pyrrolo[2,3-d]pyrimidin-7-yl)methyl)piperidin-1-yl)acetamide]	6.60
NC(=O)CN1CCC(O)(Cn2cnc3c(N(Cc4ccc(C(F)(F)F)cc4)C4CC4)ncnc32)CC1 [Example 3P6-3, 2-(4-((6-(cyclopropyl(4-(trifluoromethyl)benzyl)amino)-9H-purin-9-yl)methyl)-4-hydroxypiperidin-1-yl)acetamide]	7.14
N#Cc1cn(CC2(O)CCN(CC(N)=O)CC2)c2ncnc(N(Cc3ccc(C(F)(F)F)cc3)C3CC3)c12 [Example 3P6-4, 2-(4-((5-cyano-4-(cyclopropyl(4-(trifluoromethyl)benzyl)amino)-7H-pyrrolo[2,3-d]pyrimidin-7-yl)methyl)-4-hydroxypiperidin-1-yl)acetamide]	6.53
CN(Cc1ccc(C(F)(F)F)cc1)c1ncnc2c1c(F)cn2CC1(O)CCN(CC(N)=O)CC1 [Example 3P6-5, 2-(4-((5-fluoro-4-(methyl(4-(trifluoromethyl)benzyl)amino)-7H-pyrrolo[2,3-d]pyrimidin-7-yl)methyl)-4-hydroxypiperidin-1-yl)acetamide]	7.06

Further lines, results first:

pIC50	Structure (SMILES)
7.11	CC(C)N(Cc1ccc(C(F)(F)F)cc1)c1ncnc2c1ncn2C[C@@H]1CCN(CC(N)=O)C[C@H]1O (racemic) [Example P6-22, rac-2-((3R,4R)-3-hydroxy-4-((6-(isopropyl(4-(trifluoromethyl)benzyl)amino)-9H-purin-9-yl)methyl)piperidin-1-yl)acetamide]
< 6.00	CCN(Cc1ccc(C#N)cc1)c1ncnc2c1ccn2C[C@@H]1CCN(CC(N)=O)C[C@H]1O (relative stereo) [P6-29″, rel-2-((3R,4R)-4-((4-((4-cyanobenzyl)(ethyl)amino)-7H-pyrrolo[2,3-d]pyrimidin-7-yl)methyl)-3-hydroxypiperidin-1-yl)acetamide]
7.92	CCN(Cc1ccc(-c2cnn(C)c2)cc1)c1ncnc2c1ccn2C[C@@H]1CCN(CC(N)=O)C[C@H]1O (relative stereo) [P6-34″, rel-2-((3R,4R)-4-((4-(ethyl(4-(1-methyl-1H-pyrazol-4-yl)benzyl)amino)-7H-pyrrolo[2,3-d]pyrimidin-7-yl)methyl)-3-hydroxypiperidin-1-yl)acetamide]
7.62	CCN(Cc1ccc(-c2cnn(C)c2)cc1F)c1ncnc2c1ccn2C[C@@H]1CCN(CC(N)=O)C[C@H]1O (relative stereo) [P6-35″, rel-2-((3R,4R)-4-((4-(ethyl(2-fluoro-4-(1-methyl-1H-pyrazol-4-yl)benzyl)amino)-7H-pyrrolo[2,3-d]pyrimidin-7-yl)methyl)-3-hydroxypiperidin-1-yl)acetamide]
7.85	CCN(Cc1ccc(-n2cccn2)cc1F)c1ncnc2c1ccn2C[C@@H]1CCN(CC(N)=O)C[C@H]1O (relative stereo) [P6-36″, rel-2-((3R,4R)-4-((4-(ethyl(2-fluoro-4-(1H-pyrazol-1-yl)benzyl)amino)-7H-pyrrolo[2,3-d]pyrimidin-7-yl)methyl)-3-hydroxypiperidin-1-yl)acetamide]
7.82	CCN(Cc1ccc(-n2cccn2)cc1F)c1ncnc2c1ccn2C[C@@]1(O)CCN(CC(N)=O)C[C@@H]1O (relative stereo) [R5-5″, Rel-2-((3R,4R)-4-((4-(ethyl(2-fluoro-4-(1H-pyrazol-1-yl)benzyl)amino)-7H-pyrrolo[2,3-d]pyrimidin-7-yl)methyl)-3,4-dihydroxypiperidin-1-yl)acetamide]
8.21	NC(=O)CN1CC[C@@H](Cn2ccc3c(N(Cc4ccc(C(F)(F)F)cc4)C4CC4)ncnc32)[C@H](F)C1 (single isomer, unassigned) [Example K8-2-1]
8.51	NC(=O)CN1CC[C@@H](Cn2ccc3c(N(Cc4ccc(C(F)(F)F)cc4)C4CC4)ncnc32)[C@H](F)C1 (single isomer, unassigned) [Example K8-2-2]
7.92	NC(=O)CN1CC[C@@H](Cn2ccc3c(N4CCOC[C@@H]4c4ccc(C(F)(F)F)cc4)ncnc32)[C@H](O)C1 (single isomer, unassigned) [Example P6-01-1, 2-((3R*,4R*)-3-hydroxy-4-((4-((S)-3-(4-(trifluoromethyl)phenyl)morpholino)-7H-pyrrolo[2,3-d]pyrimidin-7-yl)methyl)piperidin-1-yl)acetamide]
7.60	NC(=O)CN1CC[C@@H](Cn2ccc3c(N4CCOC[C@@H]4c4ccc(C(F)(F)F)cc4)ncnc32)[C@H](O)C1 (single isomer, unassigned) [Example P6-01-2, 2-((3R*,4R*)-3-hydroxy-4-((4-((S)-3-(4-(trifluoromethyl)phenyl)morpholino)-7H-pyrrolo[2,3-d]pyrimidin-7-yl)methyl)piperidin-1-yl)acetamide]
7.19	NC(=O)CN1CC[C@@H](Cn2cnc3c(N(Cc4ccc(C(F)(F)F)cc4)C4CC4)ncnc32)[C@H](O)C1 (single isomer, unassigned) [Example P6-26-1]

Same assay, conditions: Table 5 b; bound estimated from % inhibition at 0.1 and/or 1 uM; read-out: RORγ Gal4 assay (based on % inhibition at 0.1 and/or 1 uM) IC50

pIC50	Structure (SMILES)
> 7.00	NC(=O)Cc1ccc(Cn2ccc3c(N4CCOC[C@@H]4c4ccc(C(F)(F)F)cn4)ncnc32)cc1 [Example 328, reference compound]
> 7.00	NC(=O)Cc1ccc(Cn2ccc3c(N(Cc4ccc(C(F)(F)F)cc4)C4CC4)ncnc32)cc1 [Example I1, reference compound]

Same assay, conditions: stated as a bound only (Tables 5 a, 6, 7); read-out: Gal4 assay IC50

pIC50	Structure (SMILES)
> 6.30	NC(=O)CN1CC[C@@H](Cn2ccc3c(N4CCOC[C@@H]4c4ccc(C(F)(F)F)cn4)ncnc32)[C@H](F)C1 (single isomer, unassigned) [Example Q4-1-1, 2-((3R*,4R*)-3-fluoro-4-((4-((S)-3-(5-(trifluoromethyl)pyridin-2-yl)morpholino)-7H-pyrrolo[2,3-d]pyrimidin-7-yl)methyl)piperidin-1-yl)acetamide]
> 7.00	NC(=O)Cc1ccc(Cn2ccc3c(N4CCOC[C@@H]4c4ccc(C(F)(F)F)cn4)ncnc32)cc1 [Example 328, reference compound]
> 7.00	NC(=O)Cc1ccc(Cn2ccc3c(N(Cc4ccc(C(F)(F)F)cc4)C4CC4)ncnc32)cc1 [Example I1, reference compound]

From patent US11780843B2, “Compounds active towards nuclear receptors” (NUEVOLUTION A/S, priority 2020, dated 2023)
